The values that follow are results of earlier work, collected in US20070134341A1, “COMPOSITIONS OF LIPOXYGENASE INHIBITORS” (priority 2005, published 2007).

For `CC(c1cc2ccccc2s1)N(O)C(N)=O` (racemic) [Zileuton, (±)-1-(1-benzo[b]thien-2-ylethyl)-1-hydroxyurea], the solubility in acetonitrile entry (acetonitrile) is “slightly soluble”. The solubility in ethanol result (ethanol) is on record as “soluble”. Moreover, the solubility in hexane result (hexane) was “practically insoluble”. Further, the solubility in methanol entry (methanol) is listed as “soluble”. Further, the solubility in water result (water) was “practically insoluble”. The water solubility (water, 25° C.) was 80 to 140 µg/mL.
